Results published in patent US11236086B2, “Substituted pyrrolopyridines as inhibitors of activin receptor-like kinase” (BLUEPRINT MEDICINES CORPORATION, priority 2017, dated 2022).
Values belong to the compound of their own block, whether it stands above or below them.

Molecular target: T1, ALK2R206H (mutant ALK2, N-terminally tagged with GST) (Homo sapiens, UniProt Q04771, R206H)
T1 construct: purchased Carna Bioscience or ThermoFisher 09-148 or PV6232
T1 sequence (Q04771 21-509 R206H): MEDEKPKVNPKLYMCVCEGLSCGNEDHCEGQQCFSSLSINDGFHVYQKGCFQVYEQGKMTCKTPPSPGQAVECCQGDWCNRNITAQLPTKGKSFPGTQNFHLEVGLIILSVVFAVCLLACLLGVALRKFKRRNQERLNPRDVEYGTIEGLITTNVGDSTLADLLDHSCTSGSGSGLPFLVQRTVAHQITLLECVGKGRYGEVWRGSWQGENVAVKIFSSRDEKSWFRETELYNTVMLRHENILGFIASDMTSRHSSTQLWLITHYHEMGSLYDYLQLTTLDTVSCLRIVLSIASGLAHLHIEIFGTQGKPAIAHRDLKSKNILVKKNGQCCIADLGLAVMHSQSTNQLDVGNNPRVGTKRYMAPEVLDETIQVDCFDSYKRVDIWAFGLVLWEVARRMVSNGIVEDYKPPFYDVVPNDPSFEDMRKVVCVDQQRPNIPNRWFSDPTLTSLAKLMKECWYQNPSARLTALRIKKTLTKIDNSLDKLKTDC
Assay: ALK binding assay (LANTHASCREEN TR-FRET competitive binding, displacement of Kinase Tracer 178)
Settings: read-out: Binding Assay (IC50 class)
Description: Example 10 ALK Binding Assays
Binding assays were conducted using the LANTHASCREEN® technology (ThermoFisher Scientific). LANTHASCREEN® is a competitive binding, displacement assay where the assumed steady state occupancy of the binding site is measured using a time-resolved, fluorescence energy transfer (TR-FRET) readout between a fluorescent tracer and Europium (Eu)-tagged antibody specific for the kinase or expression tag (e.g., GST) of interest. Displacement of the tracer by a compound of the disclosure reduces, and is directly proportional to, the TR-FRET between the tracer and the antibody. Tracer was used at a concentration equal to or near to its Kd for the kinase. The Eu-tagged antibody was typically used in excess to ensure sampling of all competent protein capable of binding the tracer.
For these assays, a mutant ALK2 was used that was N-terminally tagged with GST (ALK2R206H Carna Bioscience (09-148) or ALK2R206H ThermoFisher (PV6232)); a Eu-tagged anti-GST antibody (ThermoFisher) and Kinase Tracer 178 (ThermoFisher).
In all cases, the kinase (2-5 nM) was mixed with Eu-tagged antibody (4-10 nM) mix and tracer (50 nM) were incubated with test compound titrations prepared in 100% DMSO (1% DMSO final) for 30 minutes at room temperature. All reagents and compounds were dissolved in Kinase Buffer A (ThermoFisher) to achieve the final concentration. The plates were read on a PerkinElmer EnVision® multilabel plate reader or a BioTek Synergy Neo plate reader, and the assay signal was represented as a ratio of the TR-FRET emission (λex 330 nm, λ^em […] and λ^em 665 nm). This readout was normalized to 0% and 100% inhibited control wells, plotted against inhibitor concentration, and fitted to a 4-parameter log dose response curve.
The results of this assay are shown in Table 3 in the column labelled “Binding Assay” wherein “A” represents an IC50 of less than or equal to 10 nM; “B” represents an IC50 of greater than 10 nM and less than or equal to 50 nM; and “C” represents an IC50 of greater than 50 nM. Blank values in the table indicate that the particular compound was not tested in this assay.

SMILES: O=C(C1CC1)N1CCN(c2ccnc3[nH]c(-c4ccccc4F)cc23)CC1 [Compound 18]
- IC50: 10 to 50 nM

SMILES: Cn1cc(-c2cc3c(N4CCN(C(=O)O[C@@H]5CCOC5)CC4)ccnc3[nH]2)cn1 [Compound 154]
- IC50: ≤ 10 nM

SMILES: Cn1cc(-c2cc3c(N4CCN(C(=O)[C@H]5CC[C@@H](O)CC5)CC4)ccnc3[nH]2)cn1 [Compound 223]
- IC50: 10 to 50 nM

SMILES: COc1ccccc1-c1cc2c(N3CCN(C(=O)C4CC4)CC3)ccnc2[nH]1 [Compound 58]
- IC50: > 50 nM

SMILES: CCC(C)CC(=O)N1CCN(c2ccnc3[nH]c(-c4cnn(C)c4)cc23)CC1 (centres unmarked) [Compound 83]
- IC50: 10 to 50 nM

SMILES: CCOCC(=O)N1CCN(c2ccnc3[nH]c(-c4cnn(C)c4)cc23)CC1 [Compound 43]
- IC50: > 50 nM

SMILES: Cc1n[nH]c(C)c1-c1cc2c(N3CCN(C(=O)OC4COC4)CC3)ccnc2[nH]1 [Compound 157]
- IC50: > 50 nM

SMILES: N#Cc1cccc(-c2cc3c(N4CCN(C(=O)C5CC5)CC4)ccnc3[nH]2)c1 [Compound 44]
- IC50: 10 to 50 nM

SMILES: N#Cc1ncc(-c2cc3c(N4CCN(C(=O)OC5COC5)CC4)ccnc3[nH]2)s1 [Compound 229]
- IC50: ≤ 10 nM

SMILES: CCOCCOC(=O)N1CCN(c2ccnc3[nH]c(-c4cnn(C)c4)cc23)CC1 [Compound 164]
- IC50: ≤ 10 nM

SMILES: CCOC(=O)N1CCN(c2ccnc3[nH]c(-c4nn(C)cc4C#N)cc23)CC1 [Compound 72]
- IC50: 10 to 50 nM

SMILES: Cc1nnc(-c2cc3c(N4CCN(C(=O)OC5COC5)CC4)ccnc3[nH]2)o1 [Compound 110]
- IC50: 10 to 50 nM

SMILES: O=C(C1CC1)N1CCN(c2ccnc3[nH]c(-c4cc(F)cc(F)c4)cc23)CC1 [Compound 88]
- IC50: ≤ 10 nM

SMILES: CCc1c(-c2cc3c(N4CCN(C(=O)OC5COC5)CC4)ccnc3[nH]2)cnn1C [Compound 235]
- IC50: ≤ 10 nM

SMILES: Cc1nc(-c2[nH]c3nccc(N4CCN(C(=O)OC5COC5)CC4)c3c2C#N)co1 [Compound 216]
- IC50: ≤ 10 nM

SMILES: CCOC(=O)N1CCN(c2ccnc3[nH]c(-c4cc(C)ccn4)cc23)CC1 [Compound 25]
- IC50: ≤ 10 nM

SMILES: CCOC(=O)N1CCN(c2ccnc3[nH]c(-c4nn(C)cc4C)cc23)CC1 [Compound 42]
- IC50: 10 to 50 nM

SMILES: O=C(C1CC1)N1CCN(c2ccnc3[nH]c(-c4ccc(CO)cc4)cc23)CC1 [Compound 57]
- IC50: ≤ 10 nM

SMILES: Cc1cccc(-c2cc3c(N4CCN(C(=O)C5CC5)CC4)ccnc3[nH]2)c1 [Compound 15]
- IC50: 10 to 50 nM

SMILES: Cc1c(-c2cc3c(N4CCN(C(=O)OC5COC5)CC4)ccnc3[nH]2)cnn1C [Compound 156]
- IC50: ≤ 10 nM

SMILES: CC(C)C(=O)N1CCN(c2ccnc3[nH]c(-c4cnn(C)c4)cc23)CC1 [Compound 10]
- IC50: 10 to 50 nM

SMILES: Cn1cc(-c2cc3c(N4CCN(C(=O)OCC5CCC5)CC4)ccnc3[nH]2)cn1 [Compound 143]
- IC50: ≤ 10 nM

SMILES: CCOC(=O)N1CCN(c2ccnc3[nH]c(-c4cnc(C)nc4)cc23)CC1 [Compound 31]
- IC50: 10 to 50 nM

SMILES: Cn1cc(-c2cc3c(N4CCN(C(=O)OCCC5CC5)CC4)ccnc3[nH]2)cn1 [Compound 141]
- IC50: ≤ 10 nM

SMILES: O=C(C1CC1)N1CCN(c2ccnc3[nH]c(-c4ccc(Cl)cc4)cc23)CC1 [Compound 84]
- IC50: 10 to 50 nM

SMILES: Cn1cc(-c2cc3c(N4CCN(C(=O)[C@@H]5CCCO5)CC4)ccnc3[nH]2)cn1 [Compound 81]
- IC50: 10 to 50 nM

SMILES: CC(C)(O)Cn1cc(-c2cc3c(N4CCN(C(=O)C5CC5)CC4)ccnc3[nH]2)cn1 [Compound 222]
- IC50: ≤ 10 nM

SMILES: CCOC(=O)N1CCN(c2ccnc3[nH]c(-c4cc(C)ns4)cc23)CC1 [Compound 47]
- IC50: ≤ 10 nM

SMILES: Cc1c(-c2cc3c(N4CCN(C(=O)C5CC5)CC4)ccnc3[nH]2)cnn1C [Compound 22]
- IC50: 10 to 50 nM

SMILES: CCc1c(-c2cnn(C)c2)[nH]c2nccc(N3CCN(C(=O)OC4COC4)CC3)c12 [Compound 237]
- IC50: ≤ 10 nM

SMILES: CCOC(=O)N1CCN(c2ccnc3[nH]c(-c4scnc4C#N)cc23)CC1 [Compound 95]
- IC50: ≤ 10 nM

SMILES: Cc1nc(-c2cc3c(N4CCN(C(=O)OC5COC5)CC4)ccnc3[nH]2)oc1C [Compound 158]
- IC50: ≤ 10 nM

SMILES: Cc1cnc(-c2cc3c(N4CCN(C(=O)OC5COC5)CC4)ccnc3[nH]2)o1 [Compound 108]
- IC50: 10 to 50 nM

SMILES: COc1ccc(-c2cc3c(N4CCN(C(=O)C5CC5)CC4)ccnc3[nH]2)cn1 [Compound 62]
- IC50: 10 to 50 nM

SMILES: O=C(OC1COC1)N1CCN(c2ccnc3[nH]c(-c4cn[nH]c4)cc23)CC1 [Compound 36]
- IC50: ≤ 10 nM

SMILES: COCCCOC(=O)N1CCN(c2ccnc3[nH]c(-c4cnn(C)c4)cc23)CC1 [Compound 163]
- IC50: ≤ 10 nM

SMILES: Cn1cc(-c2cc3c(N4CCN(C(=O)OC5COC5)CC4)ccnc3[nH]2)c(C#N)n1 [Compound 209]
- IC50: ≤ 10 nM

SMILES: O=C(C1CC1)N1CCN(c2ccnc3[nH]c(-c4cccnc4)cc23)CC1 [Compound 4]
- IC50: 10 to 50 nM

SMILES: CCOC(=O)N1CCN(c2ccnc3[nH]c(-c4ccc(C)nc4)cc23)CC1 [Compound 27]
- IC50: ≤ 10 nM

SMILES: CCC(=O)c1ccc(-c2cc3c(N4CCN(C(=O)C5CC5)CC4)ccnc3[nH]2)cc1 [Compound 184]
- IC50: ≤ 10 nM

SMILES: O=C(C1CC1)N1CCN(c2ccnc3[nH]c(-c4ccc(F)cc4F)cc23)CC1 [Compound 87]
- IC50: 10 to 50 nM

Second part, the compound after the results:

- IC50: ≤ 10 nM
SMILES: Cn1cc(-c2cc3c(N4CCN(C(=O)OCCOC(C)(C)C)CC4)ccnc3[nH]2)cn1 [Compound 314]

- IC50: ≤ 10 nM
SMILES: Cn1cnc(-c2cc3c(N4CCN(C(=O)O[C@H]5CC(F)(F)C5(F)F)CC4)ccnc3[nH]2)c1 [Compound 402]

- IC50: 10 to 50 nM
SMILES: O=C(C1CC1)N1CCN(c2ccnc3[nH]c(-c4ccc(OCc5ccccc5)cc4)cc23)CC1 [Compound 406]

- IC50: ≤ 10 nM
SMILES: Cn1cnc(-c2cc3c(N4CCN(C(=O)O[C@@H]5CC(F)(F)C5(F)F)CC4)ccnc3[nH]2)c1 [Compound 400]

- IC50: 10 to 50 nM
SMILES: O=C(C1CC1)N1CCN(c2ccnc3[nH]c(-c4ccc(Oc5ccccc5)cc4)cc23)CC1 [Compound 361]

- IC50: > 50 nM
SMILES: CCOc1ccc(-c2cc3c(N4CCN(C(=O)C5CC5)CC4)ccnc3[nH]2)c(Cl)c1 [Compound 309]

- IC50: 10 to 50 nM
SMILES: Cn1cc(-c2cc3c(N4CCN(C(=O)OCCS(C)(=O)=O)CC4)ccnc3[nH]2)cn1 [Compound 338]

- IC50: ≤ 10 nM
SMILES: Cn1cc(-c2cc3c(N4CCN(C(=O)OCCOC5CCCCC5)CC4)ccnc3[nH]2)cn1 [Compound 405]

- IC50: ≤ 10 nM
SMILES: Cn1cc(-c2[nH]c3nccc(N4CCN(C(=O)OC5COC5)CC4)c3c2C2CC2)cn1 [Compound 293]

- IC50: ≤ 10 nM
SMILES: CC(C)(O)c1csc(-c2cc3c(N4CCN(C(=O)OC5COC5)CC4)ccnc3[nH]2)n1 [Compound 379]

- IC50: ≤ 10 nM
SMILES: CC(C)(C)OC(=O)NC1(c2ccc(-c3cc4c(N5CCN(C(=O)C6CC6)CC5)ccnc4[nH]3)cc2)CC1 [Compound 463]

- IC50: ≤ 10 nM
SMILES: Cc1nc(-c2cc3c(N4CCN(C(=O)O[C@H]5CCC5(F)F)CC4)ccnc3[nH]2)cn1C [Compound 327]

- IC50: ≤ 10 nM
SMILES: CCN1CCN(c2ccc(-c3cc4c(N5CCN(C(=O)C6CC6)CC5)ccnc4[nH]3)c3ncccc23)CC1 [Compound 471]

- IC50: ≤ 10 nM
SMILES: Cc1nc(-c2[nH]c3nccc(N4CCN(C(=O)OC5COC5)CC4)c3c2Cl)sc1C [Compound 391]

- IC50: > 50 nM
SMILES: CC(C)c1[nH]ncc1-c1cc2c(N3CCN(C(=O)OC4COC4)CC3)ccnc2[nH]1 [Compound 239]

- IC50: ≤ 10 nM
SMILES: O=C(OC1COC1)N1CCN(c2ccnc3[nH]c(-c4csc(C(=O)N5CCCC5)n4)cc23)CC1 [Compound 448]

- IC50: ≤ 10 nM
SMILES: CC(C)OCCOC(=O)N1CCN(c2ccnc3[nH]c(-c4cnn(C)c4)cc23)CC1 [Compound 247]

- IC50: ≤ 10 nM
SMILES: Cn1cc(-c2cc3c(N4CCN(C(=O)OCC5CCCO5)CC4)ccnc3[nH]2)cn1 (centres unmarked) [Compound 238]

- IC50: 10 to 50 nM
SMILES: CCN1CCN(c2ccc(-c3cc4c(N5CCN(C(=O)C6CC6)CC5)ccnc4[nH]3)c(OC)c2)CC1 [Compound 454]

- IC50: ≤ 10 nM
SMILES: COc1cnc(-c2cc3c(N4CCN(C(=O)OC5COC5)CC4)ccnc3[nH]2)c(C#N)c1 [Compound 346]

- IC50: 10 to 50 nM
SMILES: Cn1cc(-c2cc3c(N4CCN(C(=O)OCCC(C)(C)C)CC4)ccnc3[nH]2)cn1 [Compound 240]
